Experimental data as given in PMC10578352, “Identification of a Protein Arginine Methyltransferase 7 (PRMT7)/Protein Arginine Methyltransferase 9 (PRMT9) Inhibitor” (Journal of Medicinal Chemistry, 2023).

How the values were obtained:
Format in all cases: biochemical
SUV39H2/KMT1B = biological target: T1, SUV39H2/KMT1B (Homo sapiens, UniProt Q9H5I1); test: HotSpot KMT activity assay, SUV39H2; conditions: read-out: % SUV39H2 residual activity
T1 construct: the human recombinant SUV39H2 (residues 46–410, C-terminus); His (C); purchased Reaction Biology Corporation
Source text: ; MW = 35.4 kDa; Genbank Accession # NM_018489), or the human recombinant EZH2-containing five-member polycomb repressive complex 2 (including EZH2 residues 2–746, AEBP2 2–517, EED 2–441, RbAp48 2–425, SUZ12 2–739; all full-length; with N-terminal Flag-tag on EED and N-terminal His-tag on all others; MW = 333.8 kDa; Genbank Accession # NM_001203247, NM_001114176, NM_003797, NM_005610, NM_015355), or the human recombinant G9a (residues 913–1193, C-terminus; with an N-terminal His-tag; MW = 34.6 kDa; Genbank Accession # NM_006709.3), or the human recombinant MLL1 complex (including MLL1 residues 3745–3969, C-terminus, WDR5 22–334, C-terminus, RbBP5 1–538, C-terminus, ASH2L 2–534, C-terminus, DPY-30 1–99, C-terminus; N-terminal His-tag on all subunits; MW = 212.0 kDa; Genbank Accession # NM_005933, NM_017588, NM_005057, NM_001105214, NM_0325742), or the human recombinant SET7/9 (residues 2–366, C-terminus; with a N-terminal GST-tag and a C-terminal His-tag; MW = 68.5 kDa; Genbank Accession # NM_030648), or the human recombinant SMYD3 (residues 2–428, C-terminus; C-terminal His-tag; MW = 50.1 kDa; Genbank Accession # NM_001167740), or the human recombinant SUV39H2 (residues 46–410, C-terminus; N-terminal fusion protein with a C-terminal His-tag; MW = 98.8 kDa; GenBank Accession No. NM_001193424), or the human recombinant DOT1L (residues 1–416; N-terminal GST-tag; MW = 80.0 kDa; Genbank Accession # NM_032482) was added to a solution of the proper substrate (oligo nucleosomes for ASH1L, MLL1 complex, and DOT1L, final concentration 0.05 mg/mL; core histone for EZH2 complex and SET7/9, final concentration 0.05 mg/mL; histone H3 for SUV39H2, final concentration 5 μM; histone H3 1–21 for G9a, final concentration 2.5 μM) in freshly prepared reaction buffer (50 mM Tris-HCl (pH 8.5), 5 mM MgCl2, 50 mM NaCl, 1 mM DTT, 1 mM PMSF, 1% DMSO) and gently mixed. […] After incubation for 60 min at 30 °C, the reaction mixture was delivered to filter paper for detection (as assessed by scintillation). […] Values obtained for each compound are mean ± SD determined for two separate experiments.

G9a/KMT1C = biological target: T2, G9a/KMT1C (Homo sapiens, UniProt Q96KQ7); test: HotSpot KMT activity assay, G9a; conditions: read-out: % G9a residual activity
T2 construct: the human recombinant G9a (residues 913–1193, C-terminus); with an N-terminal His-tag; His (N); purchased Reaction Biology Corporation
Description: (§1) Then, ^3H-SAM (final concentration 1 μM) was delivered into the reaction mixture to initiate the reaction. After incubation for 60 min at 30 °C, the reaction mixture was delivered to filter paper for detection (as assessed by scintillation). […] No inhibitor control (DMSO) was considered as showing 100% enzyme activity. Data were analyzed using Excel and GraphPad Prism 6.0 software (GraphPad Software Inc., San Diego, CA). Values obtained for each compound are mean ± SD determined for two separate experiments.

DOT1L/KMT4 = biological target: T3, DOT1L/KMT4 (Homo sapiens, UniProt Q8TEK3); test: HotSpot KMT activity assay, DOT1L
T3 construct: the human recombinant DOT1L (residues 1–416); N-terminal GST-tag; GST (N); purchased Reaction Biology Corporation
Description: as §1

T3 sequence (Q8TEK3 1-416): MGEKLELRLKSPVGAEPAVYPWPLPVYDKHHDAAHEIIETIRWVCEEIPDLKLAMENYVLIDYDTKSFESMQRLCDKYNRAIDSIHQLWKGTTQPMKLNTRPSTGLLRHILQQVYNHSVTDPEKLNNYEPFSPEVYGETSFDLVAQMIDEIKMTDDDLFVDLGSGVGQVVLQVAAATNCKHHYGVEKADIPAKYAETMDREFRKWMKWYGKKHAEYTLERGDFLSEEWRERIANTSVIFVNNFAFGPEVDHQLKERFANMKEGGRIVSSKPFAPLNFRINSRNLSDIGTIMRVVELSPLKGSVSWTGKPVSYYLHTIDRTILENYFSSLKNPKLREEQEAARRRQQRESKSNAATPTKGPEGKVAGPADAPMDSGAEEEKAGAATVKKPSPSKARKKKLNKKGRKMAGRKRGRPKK
T2 sequence (Q96KQ7 913-1193): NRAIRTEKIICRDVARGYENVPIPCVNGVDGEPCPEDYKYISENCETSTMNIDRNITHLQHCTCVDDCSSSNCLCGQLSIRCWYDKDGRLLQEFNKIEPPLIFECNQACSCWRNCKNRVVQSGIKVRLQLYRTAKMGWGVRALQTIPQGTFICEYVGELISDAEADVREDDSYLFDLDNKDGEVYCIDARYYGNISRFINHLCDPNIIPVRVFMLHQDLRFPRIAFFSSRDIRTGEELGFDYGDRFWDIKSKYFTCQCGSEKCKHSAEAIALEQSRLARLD
T1 sequence (Q9H5I1 46-410): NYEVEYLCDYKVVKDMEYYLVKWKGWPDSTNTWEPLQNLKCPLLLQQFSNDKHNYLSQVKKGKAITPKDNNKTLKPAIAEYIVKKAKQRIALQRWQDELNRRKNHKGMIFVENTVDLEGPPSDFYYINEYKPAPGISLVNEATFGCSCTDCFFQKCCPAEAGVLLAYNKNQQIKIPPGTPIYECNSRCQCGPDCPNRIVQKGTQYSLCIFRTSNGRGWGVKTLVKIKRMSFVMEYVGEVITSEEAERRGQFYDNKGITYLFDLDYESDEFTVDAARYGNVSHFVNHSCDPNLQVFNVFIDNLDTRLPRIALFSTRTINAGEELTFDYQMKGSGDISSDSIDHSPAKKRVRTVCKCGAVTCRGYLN

remaining activity at 10 µM (SUV39H2/KMT1B; 10 μM): 89.7 ± 1.08%
remaining activity at 100 µM (SUV39H2/KMT1B; 100 μM): 83.76 ± 0.22%
remaining activity at 10 µM (G9a/KMT1C; 10 μM): 111 ± 4.3%
remaining activity at 100 µM (G9a/KMT1C; 100 μM): 70.93 ± 0.31%
inhibition of DOT1L/KMT4 (in words) (DOT1L/KMT4; 10 μM): significantly inhibited
remaining activity at 10 µM (DOT1L/KMT4; 10 μM, read-out: % DOT1L residual activity): 11.2 ± 0.88%
remaining activity at 100 µM (DOT1L/KMT4; 100 μM, read-out: % DOT1L residual activity): 1.35 ± 0.17%
Compound: COC(=O)c1cc(O)c2cc(NC(=O)NCCCNC(=N)NC[C@H]3O[C@@H](n4cnc5c(N)ncnc54)[C@H](O)[C@@H]3O)cc(C(F)(F)F)c2c1 [1j, Methyl 6-(3-(3-(3-(((2R,3S,4R,5R)-5-(6-Amino-9H-purin-9-yl)-3,4-dihydroxytetrahydrofuran-2-yl)methyl)guanidino)propyl)ureido)-4-hydroxy-8-(trifluoromethyl)-2-naphthoate]
